According to US20080214530A1, “Photo-Activated Disinfection” (priority 2003, published 2008):

Test system: caries
Assay: optimum photosensitiser concentration for photo-activated disinfection of caries
Settings: at 635 nm
Method: The concentration of tolonium chloride will depend on the specific application and chosen wavelength. We have determined an optimum at 635 nm for caries of 12 μg/ml. Longer wavelengths and other applications especially periodontal disease where in vivo dilution may occur are likely to need greater concentrations, whereas shorter wavelengths may require reduced concentrations. Preferably, therefore, the concentration should fall within an overall range between 1 and 200 μg/ml. […] The reduction in efficacy as the concentration increases beyond the optimum is thought to be due to the accompanying increasing absorption limiting the light transmission through the treatment zone.

Cc1cc2nc3ccc(N(C)C)cc3[s+]c2cc1N [tolonium chloride] gave an optimum concentration of 12 µg/mL.
